According to patent publication US20100279976A1, “USE OF ARTEMISININ AND ITS DERIVATIVES IN CANCER THERAPY” (SHANGHAI INSTITUTES FOR BIOLOGICAL SCIENCES, CAS, priority 2009, published 2010):
Like-named read-outs stand apart in the source and are kept apart here.

Experiments:
HepG2 cells [1] = experiment: Annexin V-FITC apoptosis assay, HepG2; format: cell-based, human
Experimental: ART- and DHA-induced apoptosis alone or in combination with gemcitabine in HepG2 and Hep3B cells or in combination with carboplatin in ovarian cancer cells may be determined by flow cytometry using the Annexin V-FITC Apoptosis Detection kit following the manufacturer's instructions. Briefly, 2×10^5 cells may be treated with ART and DHA ([…]) or 10 μg/L gemcitabine for 48 h. The cells may then be harvested, washed in PBS, and incubated with Annexin V and propidium iodide for staining in binding buffer at room temperature for 10 min in the dark. The stained cells may be analyzed using the FACSAria instrument.

HepG2 cells [2] = experiment: Western blot of apoptosis-related proteins; format: cell-based, human; conditions: HepG2, 48 h
Experimental: Whole-cell lysates may be generated with radioimmunoprecipitation assay lysis buffer, and after centrifugation, the supernatant fraction may be collected for immunoblotting. Proteins may be resolved by SDS-PAGE and transferred onto a nitrocellulose membrane. After blocking with 5% nonfat milk in blocking buffer [20 mmol/L TBS (pH 7.5) containing 0.1% Tween 20], the membrane may be incubated with the desired primary antibody for 2 h at room temperature and then incubated with appropriate peroxidase conjugated secondary antibody. The immunoreactive bands may be visualized using the ECL Plus Western Blotting Detection System. The level of ([…] for each sample may be used as loading control. Tumor tissues may be collected at the termination of the experiment and homogenized using a homogenizer in ice-cold lysis buffer. Supernatants may be collected and used to examine the expression of different proteins by Western blot analysis.

ovarian cancer cells = experiment: MTT cell viability assay, ovarian cancer cells (line not specified); format: cell-based; conditions: Homo sapiens, 48 hrs, read-out: inhibition of viability
Experimental: The effects of ART derivatives on the viability of the aforementioned cells may be determined using the MTT assay. Briefly, 2,000 cells per well were plated in triplicate in 96-well plates. After a 24-h incubation, the cells may be treated with varying concentrations of ART derivatives (0, 1, 5, 10, 25, 50, and 100 μmol/L) for 48 h. The MTT assay may be performed according to the manufacture's instruction and the resultant formazan crystals may be dissolved in DMSO (100 μL). The absorbance may be then recorded at 540 nm. The effects of ART derivatives on cell viability may be assessed by comparing the percent cell viability of the treated cells with the vehicle (DMSO)-treated control cells, which may be arbitrarily assigned at 100% viability. The experiment may be repeated thrice under the same conditions.

A2780 xenograft tumors = format: in vivo; conditions: for tumor growth inhibition: A2780 xenograft, 5 days/week
Experimental: Four to six week old female athymic nude mice (BALB/c, nu/nu) may be purchased from Shanghai Experimental Animal Center (Shanghai, China). Animal studies are approved by the Institute for Nutritional Sciences. The tumor xenograft model may be established as follows. […] Aliquots of cells (˜5×10^6 cells/0.2 ml) may be injected subcutaneously into the left inguinal area of the mice. The tumor growth and body weight of the mice may be monitored every other day. Tumor mass may be determined. Mice bearing palpable tumors (˜70 mg) may be randomly divided into treatment and control groups n=5 mice/group). CBP may be dissolved in saline, and DHA may be dissolved in cremophor EL:ethanol:saline (5:5:90, v/v/v). DHA may be administered via i.p. injection at doses of 10 and 25 mg/kg/5 days/week for 3 weeks) alone or combined with CBP (at a single dose of 120 mg/kg, once on day 0). The control group receives saline only. Mice may be killed on day 18. Tumors may be carefully excised, trimmed of extraneous fat or connective tissue, and homogenized in RIPA buffer (100 mg tumor tissue/1 ml RIPA) and prepared for immunoblotting analysis as described above.

Compound: C[C@@H]1CC[C@H]2[C@@H](C)C(=O)O[C@@H]3O[C@@]4(C)CC[C@@H]1[C@]32OO4 [ART, artemisinin]
- apoptotic cells (HepG2 cells [1]; HepG2, 1 μmol/L, 48 h (0 μmol/L: 7%)): 9%
- apoptotic cells (HepG2 cells [1]; HepG2, 10 μmol/L, 48 h): 14.95%
- apoptotic cells (HepG2 cells [1]; HepG2, 25 μmol/L, 48 h): 15.45%
- apoptotic cells (HepG2 cells [1]; HepG2, 50 μmol/L, 48 h): 16.45%
- MDM2 level (HepG2 cells [2]): decrease
- cleavage of caspase-3 and PARP (HepG2 cells [2]): dose-dependent increase
- level of Bax (HepG2 cells [2]): concomitant increase
- level of Bcl-2 protein (HepG2 cells [2]): dose-dependent reduction
- p53 level (HepG2 cells [2]): dose-dependent increase

Compound: C[C@H]1[C@@H](O)O[C@@H]2O[C@@]3(C)CC[C@H]4[C@H](C)CC[C@@H]1[C@@]24OO3 [DHA, dihydroartemisinin]
- cytotoxicity at 1 µM (ovarian cancer cells; 1 μM): 24%
- cytotoxicity at 500 µM (ovarian cancer cells; 500 μM): 95%
- tumor growth inhibition (A2780 xenograft tumors; DHA 10 mg/kg i.p., vs saline control): 24%
- tumor growth inhibition (A2780 xenograft tumors; DHA 25 mg/kg i.p.): 41%
- host toxicity based on observation of body weight (A2780 xenograft tumors; mice bearing A2780 or OVCAR-3 xenografts): No other host toxicities are observed
